“And” between values parts separate entries of the source, which are not always exact repeats. Identical values can stand only once. “Also recorded” adds a separate entry of the source.
Key:
[1] = test system: TT cells; assay: Flow cytometry of cell surface HLA on TT cells; type: cell-based, human; conditions: 72 hrs
Experimental: (§1) If adherent cells, they were seeded one day before treatment.

[2] = test system: pERK in TPC1 cells; assay: Western blot of pERK in TPC1 cells; type: cell-based, human; conditions: TPC1, 24 hrs
Experimental: Cells were seeded in a 60 mm dish or 6 well plates. After the appropriate time point, cells were harvested and lysed and protein was quantified by a Lowry assay (Bio-Rad DC Protein Assay; #5000116). Protein levels were normalized and run on SDS PAGE gels (Bio-Rad). Protein was transferred to a nitrocellulose membrane using semi-dry transfer. Membrane was blocked and incubated with respective antibodies. When needed, secondary antibodies with HRP were incubated for 1 hr. Enhanced chemiluminescent substrate for HRP enzymes was used to image protein levels (Thermo-Fischer; #34095).
Cells were seeded in a 60 mm dish or 6 well plates. After the appropriate time point, cells were harvested, lysed in RIPA buffer (Thermo Instruments) and protein concentration was quantified by a Lowry assay (using the Bio-Rad DC Protein Assay; #5000116 on a Spectramax device from Molecular Devices). Protein loading levels were equalized per lane and separated on SDS gels (Bio-Rad). Protein was transferred to a nitrocellulose membrance using semi-dry transfer (BioRad). Membranes were blocked with Omniblock (American Bio) and incubated with respected antibodies. When needed, secondary antibodies with HRP were incubated for 1 hr. Enhanced chemiluminescent substrate for HRP enzymes was used to image protein levels (Thermo-Fischer; #34095) on a ChemiDoc MP imager with Soft Max Pro software (Biorad).

[3] = test system: TPC1 cells; assay: Flow cytometry of cell surface HLA and checkpoint ligands on TPC1 cells; type: cell-based, human
Experimental: as §1

[4] = test system: TPC1 cells; assay: ADCC chromium-51 release assay with ESK1 and human PBMCs on inhibitor-pretreated TPC1 cells; type: cell-based
Experimental: Peripheral blood mononuclear cells were derived from healthy donors by Ficoll density centrifugation after receiving informed consent on Memorial Sloan Kettering Institutional Review board-approved protocols. TPC1 cells treated with RET inhibitor drugs and DMSO control were labeled with chromium-51 and co-cultured with PBMCs and ESK (or its isotype control, hIgG1). Different E:T ratios were used and after 5 hrs of incubation at 37° C., the supernatant was harvested and chromium levels were measured by Chromium-51 release assay (Perkin Elmer). Higher chromium levels indicated higher levels of cytotoxicity.
After the addition of ESK and peripheral blood mononuclear cells for 5 hrs, chromium release was measured.
For each experiment reported, fresh peripheral blood mononuclear cells were derived from a healthy donor by Ficoll density centrifugation after receiving informed consent on Memorial Sloan Kettering Institutional Review Board-approved protocols. […] Cells were then labeled with 1 uCi/well chromium-51 for 1 hr at 37° C. […] Different effector:target ratios were used and after 5 hrs of incubation at 37° C., the supernatant was harvested and chromium levels were measured through standard chromium-51 release assay on a Top Count machine (Perkin Elmer).

[5] = test system: TPC1 tumors; assay: TPC1 subcutaneous tumors in NRG mice, tumor HLA and PD-L1 by flow cytometry; type: in vivo; conditions: 7 days
Experimental: Female NSG (NOD.Cg-Prkdc^scidIl2rg^tm1Wj1/SzJ) and NRG (NOD.Cg-Rag1^tm1MomIl2rg^tm1Wj1/SzJ) mice were purchased from the Jackson Laboratory or MSKCC breeding facility at 5-10 weeks old. For RET and ALK experiments, 2.5-6×10^6 tumor cells were subcutaneously injected into the flank of mice and when tumors were palpable, mice were treated daily with drug or vehicles through oral gavage. At day 7, tumors were harvested and flow cytometry was run to determine effect of inhibitors on HLA and PD-L1 on the tumor cells.
To determine if the inhibitors produced similar therapeutic improvements in vivo, mice bearing the TPC1 tumor were treated with RET inhibitors. The highly immunodeficient NRG (NOD-Rag1null IL2rgnull) mice were subcutaneously injected with 2.5×10^6 luciferase tagged TPC1 cells in their right flank. […] Afterwards, cells were immediately harvested and stained with antibodies against HLA-A*02:01 and HLA-ABC.
All animal experiments were conducted in accordance with and the approval of the MSKCC IACUC (Institutional Animal Care and Use Committee) protocols. Female NSG (NOD. Cg-Prkdc^scidIl2rg^tm1Wj1/SzJ) and NRG (NOD.Cg-Rag1^tm1MomIl2rg^tm1Wj1/SzJ) mice were purchased from the Jackson Laboratory at 5-10 weeks old. For experiments in vivo with RET and ALK, 2.5-6×10^6 tumor cells in PBS were subcutaneously injected into the flank of mice. […]

[6] = test system: TPC1 cells; assay: Luminex cytokine secretion, TPC1 cells; type: cell-based, human; conditions: TPC1, 10 nm AST487
Experimental: Supernatant media were harvested after treatment and analyzed by the Luminex device (Luminex Corporation, Austin, Tex.) for relevant cytokine secretion. […] On the left side of each panel is data after 24 hours. On the right side of each panel is data after 48 hours. […] IFNγ detected in the Luminex assay (50-70 ng/ml) is from the added IFNγ at 100 ng/ml at time zero. Therefore, the increase in HLA after inhibitor treatment in these cell lines is not due to indirect activation of the JAK/STAT pathway via autocrine cytokine signaling. The data points shown in this figure are in pairs for each condition. The data point pairs for each time point are, from left to right: DMSO, Rux, Alec, IFNg, and IFNg+Rux.

CCN1CCN(Cc2ccc(NC(=O)Nc3ccc(Oc4cc(NC)ncn4)cc3)cc2C(F)(F)F)CC1 [AST487]
surface HLA [1]: increased in a AST487 dose-related manner; also recorded: increases in surface HLA | pERK levels [2]: Inhibition of pERK was seen even at concentrations as low as 10 nM; also recorded: Phospho-ERK levels decreased | HLA levels increase without STAT3 knockdown ([3]; TPC1, 10 nM AST487, 72 hrs): 3 fold | increase in surface HLA-A,B,C levels ([3]; TPC1, 72 hours): 3- to 4 fold and 3 to 4 fold | surface HLA-A*02:01 ([3]; TPC1, 72 hrs): dose dependent increase in surface HLA-A*02 | surface HLA-A,B,C ([3]; TPC1, 72 hrs): Surface HLA-A,B,C increase | surface HLA-E levels ([3]; TPC1, 72 hrs): did not change | HLA upregulation, AST487 compared with trametinib at the same concentrations ([3]; TPC1, 72 hrs, normalized to DMSO): more potent and increased HLA levels at lower doses of drug; also recorded: higher levels of HLA upregulation | HLA-A02 (BB7-FITC) surface level ([3]; TPC1, AST 487 10 nM, 72 hours): led to upregulation of HLA | HLA levels increase after siSTAT3 pretreatment ([3]; TPC1, siSTAT3 24 hrs before 10 nM AST487, 72 hrs, HLA-A*02): ~6 folds | increase in surface HLA, control group (pBabe) ([3]; TPC1 pBabe, 72 hours): ~3 fold | increase in surface HLA, BRAF V600E cells ([3]; TPC1 with introduced BRAF V600E mutation): about 2 fold | ADCC activity of ESK1 against pretreated TPC1 cells ([4]; TPC1 pre-incubated with RET inhibitor): improved antibody-dependent cellular cytotoxicity (ADCC) activity; also recorded: increased in vitro ADCC cytotoxicity | specific lysis ([4]; TPC1 pretreated 72 hrs with 10 nM AST487, ESK and PBMCs 5 hrs, 50:1 E:T): 20% | tumor cell surface HLA-A*02 and HLA-A,B,C in vivo ([5]; 10 or 35 mg/kg once daily oral gavage): Dose related increase in HLA levels; also recorded: Dose-related increases in all HLA class I levels; also recorded: increased in a dose related manner | tumor PD-L1 levels in vivo ([5]; oral gavage): no increase in PD-L1 was seen; also recorded: PD-L1 levels did not change in vivo | IFNα, IFNγ, IL4, IL6 and TNFα secretion [6]: had no effect on IFNα, IFNγ, IL4, IL6 or TNFα secretion; also recorded: had no effect on IFNα, IFNγ, IL4, IL6 and TNFα secretion
